{"source": "patent US11377442B2", "about": "“Small molecule agonists and antagonists of NR2F6 activity” (ZANDER THERAPEUTICS, INC., priority 2016, dated 2022)", "type_in_all_cases": "cell-based", "key": {"[1]": {"system": "Renilla", "assay": "Renilla signal in NR2F6 agonist screening, cmpd/DMSO", "details": "Renilla"}, "[2]": {"system": "HEK293 pGL4", "assay": "Firefly_pGL signal, cmpd/DMSO (pGL4 control cells)", "details": "Homo sapiens"}, "[3]": {"molecular_target": "T1, NR2F6 (Homo sapiens, UniProt P10588)", "T1 construct": "expressed in transfected cells; also transient transfection", "T1 sequence (P10588 1-404)": "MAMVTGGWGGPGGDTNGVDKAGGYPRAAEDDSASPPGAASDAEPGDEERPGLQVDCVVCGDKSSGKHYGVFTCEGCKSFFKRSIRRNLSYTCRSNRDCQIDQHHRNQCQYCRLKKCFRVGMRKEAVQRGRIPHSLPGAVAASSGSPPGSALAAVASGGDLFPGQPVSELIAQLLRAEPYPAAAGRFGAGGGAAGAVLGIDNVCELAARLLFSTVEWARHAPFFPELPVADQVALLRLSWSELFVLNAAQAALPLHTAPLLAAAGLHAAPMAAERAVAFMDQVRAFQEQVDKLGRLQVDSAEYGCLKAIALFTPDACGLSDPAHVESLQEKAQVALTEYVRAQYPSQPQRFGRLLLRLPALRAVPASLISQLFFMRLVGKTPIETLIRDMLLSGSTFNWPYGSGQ", "assay": "NR2F6 agonist screening, Firefly signal cmpd/DMSO"}, "[4]": {"system": "Renilla", "assay": "Renilla signal, LBD, cmpd/DMSO (NR2F6 LBD transfected cells)"}, "[5]": {"molecular_target": "T2, NR2F6 LBD (Homo sapiens, UniProt P10588)", "T2 construct": "expressed in transfected cells", "T2 sequence (P10588 165-393 limits assumed)": "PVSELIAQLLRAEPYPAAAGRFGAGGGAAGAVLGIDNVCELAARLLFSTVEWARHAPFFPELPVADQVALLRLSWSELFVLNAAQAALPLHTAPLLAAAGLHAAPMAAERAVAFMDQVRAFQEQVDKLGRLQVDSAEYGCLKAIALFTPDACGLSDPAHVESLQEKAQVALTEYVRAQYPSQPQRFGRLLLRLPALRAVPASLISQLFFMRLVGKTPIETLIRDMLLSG", "assay": "NR2F6 LBD transient transfection", "procedure,_shortened": "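LBD-transfected cells treated at 40, 10, 2 and 0.5 μM (4 replicates); cytotoxicity measured in parallel, normalized to DMSO (0%) and zero signal (100%). Higher concentrations excluded where signal loss reflected toxicity.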"}, "[6]": {"details": "read-out: Renilla F4, cmpd/DMSO (mean)"}, "[7]": {"details": "F4, read-out: Renilla, F4, cmpd/DMSO (mean)"}, "[8]": {"details": "F4, 1% FBS, read-out: Renilla, F4, 1% FBS, cmpd/DMSO (mean)"}, "[9]": {"details": "F4, 10% FBS, read-out: Renilla, F4, 10% FBS, cmpd/DMSO (mean)"}}, "note": "Values joined by “and” are separate entries in the source; they are usually repeats but may differ in a detail not shown here. Equal entries are not always repeated. Where two headings read alike, the source gives them in different places."}
{"smiles": "CC(C)CCN[C@H]1CS(=O)(=O)C[C@@H]1S(=O)(=O)c1ccc(Cl)cc1", "note": "[Compound D131]", "values": [{"measurement": "fold induction at 0.5 µM", "setting": "[1]; [6]", "result": 1}, {"measurement": "fold induction at 2 µM", "setting": "[1]; [6]", "result": 1}, {"measurement": "fold induction at 10 µM", "setting": "[1]; [6]", "result": 1.9}, {"measurement": "fold induction at 40 µM", "setting": "[1]; [6]", "result": 0.3}, {"measurement": "fold induction at 0.5 µM", "setting": "[1]; [7]", "result": 1.1}, {"measurement": "fold induction at 2 µM", "setting": "[1]; [7]", "result": 1.2}, {"measurement": "fold induction at 10 µM", "setting": "[1]; [7]", "result": 1.6}, {"measurement": "fold induction at 40 µM", "setting": "[1]; [7]", "result": 1.8}, {"measurement": "fold induction at 0.5 µM", "setting": "[1]; [8]", "result": 1}, {"measurement": "fold induction at 2 µM", "setting": "[1]; [8]", "result": 1.3}, {"measurement": "fold induction at 10 µM", "setting": "[1]; [8]", "result": 2}, {"measurement": "fold induction at 40 µM", "setting": "[1]; [8]", "result": 2}, {"measurement": "fold induction at 0.5 µM", "setting": "[1]; [9]", "result": 1}, {"measurement": "fold induction at 2 µM", "setting": "[1]; [9]", "result": 1.1}, {"measurement": "fold induction at 10 µM", "setting": "[1]; [9]", "result": 1.8}, {"measurement": "fold induction at 40 µM", "setting": "[1]; [9]", "result": 3}, {"measurement": "fold induction at 0.5 µM", "setting": "[2]; HEK293, 0.5 uM, pGL4, read-out: Firefly pGL4, cmpd/DMSO (mean)", "result": 1.1}, {"measurement": "fold induction at 0.5 µM", "setting": "[2]; HEK293, 0.5 uM, read-out: Firefly pGL4, cmpd/DMSO (mean)", "result": 1}, {"measurement": "fold induction at 2 µM", "setting": "[2]; HEK293, 2 uM, pGL4, read-out: Firefly pGL4, cmpd/DMSO (mean)", "result": 1.5}, {"measurement": "fold induction at 2 µM", "setting": "[2]; HEK293, 2 uM, read-out: Firefly pGL4, cmpd/DMSO (mean)", "result": 1.3}, {"measurement": "fold induction at 10 µM", "setting": "[2]; HEK293, 10 uM, pGL4, read-out: Firefly pGL4, cmpd/DMSO (mean)", "result": 2.7}, {"measurement": "fold induction at 10 µM", "setting": "[2]; HEK293, 10 uM, read-out: Firefly pGL4, cmpd/DMSO (mean)", "result": 2.3}, {"measurement": "fold induction at 40 µM", "setting": "[2]; HEK293, 40 uM, pGL4, read-out: Firefly pGL4, cmpd/DMSO (mean)", "result": 0.5}, {"measurement": "fold induction at 40 µM", "setting": "[2]; HEK293, 40 uM, read-out: Firefly pGL4, cmpd/DMSO (mean)", "result": 1}, {"measurement": "fold induction at 0.5 µM", "setting": "[2]; HEK293, pGL4, 1% FBS, 0.5 uM, read-out: Firefly, pGL4, 1% FBS, cmpd/DMSO (mean)", "result": 1}, {"measurement": "fold induction at 2 µM", "setting": "[2]; HEK293, pGL4, 1% FBS, 2 uM, read-out: Firefly, pGL4, 1% FBS, cmpd/DMSO (mean)", "result": 1.1}, {"measurement": "fold induction at 10 µM", "setting": "[2]; HEK293, pGL4, 1% FBS, 10 uM, read-out: Firefly, pGL4, 1% FBS, cmpd/DMSO (mean)", "result": 1.7}, {"measurement": "fold induction at 40 µM", "setting": "[2]; HEK293, pGL4, 1% FBS, 40 uM, read-out: Firefly, pGL4, 1% FBS, cmpd/DMSO (mean)", "result": 0.9}, {"measurement": "fold induction at 0.5 µM", "setting": "[2]; HEK293, pGL4, 10% FBS, 0.5 uM, read-out: Firefly, pGL4, 10% FBS, cmpd/DMSO (mean)", "result": 1}, {"measurement": "fold induction at 2 µM", "setting": "[2]; HEK293, pGL4, 10% FBS, 2 uM, read-out: Firefly, pGL4, 10% FBS, cmpd/DMSO (mean)", "result": 1.2}, {"measurement": "fold induction at 10 µM", "setting": "[2]; HEK293, pGL4, 10% FBS, 10 uM, read-out: Firefly, pGL4, 10% FBS, cmpd/DMSO (mean)", "result": 1.9}, {"measurement": "fold induction at 40 µM", "setting": "[2]; HEK293, pGL4, 10% FBS, 40 uM, read-out: Firefly, pGL4, 10% FBS, cmpd/DMSO (mean)", "result": 1.8}, {"measurement": "Firefly F4, cmpd/DMSO (mean)", "setting": "[3]; 0.5 uM", "result": 1.3}, {"measurement": "Firefly F4, cmpd/DMSO (mean)", "setting": "[3]; 0.5 uM, F4", "result": 1.4}, {"measurement": "Firefly F4, cmpd/DMSO (mean)", "setting": "[3]; 2 uM", "result": 1.4}, {"measurement": "Firefly F4, cmpd/DMSO (mean)", "setting": "[3]; 2 uM, F4", "result": 1.9}, {"measurement": "Firefly F4, cmpd/DMSO (mean)", "setting": "[3]; 10 uM", "result": 4.3}, {"measurement": "Firefly F4, cmpd/DMSO (mean)", "setting": "[3]; 10 uM, F4", "result": 4.1}, {"measurement": "Firefly F4, cmpd/DMSO (mean)", "setting": "[3]; 40 uM", "result": 0.9}, {"measurement": "Firefly F4, cmpd/DMSO (mean)", "setting": "[3]; 40 uM, F4", "result": 2.3}, {"measurement": "F4, Firefly/Renilla for S/B(F4) > 3", "setting": "[3]; 1% FBS, 10 uM", "result": "2.7 and 2.1"}, {"measurement": "F4, Firefly/Renilla for S/B(F4) > 3", "setting": "[3]; 10% FBS, 10 uM", "result": 2.2}, {"measurement": "Firefly, F4/pGL4 for S/B(F4) > 3", "setting": "[3]; 10% FBS, 10 uM", "result": 2.2}, {"measurement": "F4, Firefly/Renilla for S/B(F4) > 3", "setting": "[3]; 10% FBS, 40 uM", "result": "1.4 and 2.5"}, {"measurement": "Firefly, F4/pGL4 for S/B(F4) > 3", "setting": "[3]; 10% FBS, 40 uM", "result": "2.3 and 2.1"}, {"measurement": "Firefly, F4, 1% FBS, cmpd/DMSO (mean)", "setting": "[3]; F4, 1% FBS, 0.5 uM", "result": "0.8 and 0.9"}, {"measurement": "Firefly, F4, 1% FBS, cmpd/DMSO (mean)", "setting": "[3]; F4, 1% FBS, 2 uM", "result": "1.5 and 0.9"}, {"measurement": "Firefly, F4, 1% FBS, cmpd/DMSO (mean)", "setting": "[3]; F4, 1% FBS, 10 uM", "result": "5.4 and 3.6"}, {"measurement": "Firefly, F4, 1% FBS, cmpd/DMSO (mean)", "setting": "[3]; F4, 1% FBS, 40 uM", "result": "0.8 and 0.7"}, {"measurement": "Firefly, F4, 10% FBS, cmpd/DMSO (mean)", "setting": "[3]; F4, 10% FBS, 2 uM", "result": 1.1}, {"measurement": "Firefly, F4, 10% FBS, cmpd/DMSO (mean)", "setting": "[3]; F4, 10% FBS, 10 uM", "result": "4.1 and 2.3"}, {"measurement": "Firefly, F4, 10% FBS, cmpd/DMSO (mean)", "setting": "[3]; F4, 10% FBS, 40 uM", "result": "4.2 and 6.2"}, {"measurement": "Renilla LBD, cmpd/DMSO (mean)", "setting": "[4]; 0.5 uM", "result": 1.1}, {"measurement": "Renilla LBD, cmpd/DMSO (mean)", "setting": "[4]; 2 uM", "result": 1.1}, {"measurement": "Renilla LBD, cmpd/DMSO (mean)", "setting": "[4]; 10 uM", "result": 0.8}, {"measurement": "Renilla LBD, cmpd/DMSO (mean)", "setting": "[4]; 40 uM", "result": 0.2}, {"measurement": "Firefly LBD, cmpd/DMSO (mean)", "setting": "[5]; 0.5 uM", "result": 0.8}, {"measurement": "Firefly LBD, cmpd/DMSO (mean)", "setting": "[5]; 0.5 uM, LBD", "result": 1.3}, {"measurement": "Firefly LBD, cmpd/DMSO (mean)", "setting": "[5]; 2 uM", "result": 1.7}, {"measurement": "Firefly LBD, cmpd/DMSO (mean)", "setting": "[5]; 2 uM, LBD", "result": 2.0}, {"measurement": "Firefly LBD, cmpd/DMSO (mean)", "setting": "[5]; 10 uM", "result": 4.3}, {"measurement": "Firefly LBD, cmpd/DMSO (mean)", "setting": "[5]; 10 uM, LBD", "result": 3.6}, {"measurement": "Firefly LBD, cmpd/DMSO (mean)", "setting": "[5]; 40 uM", "result": 0.5}, {"measurement": "Firefly LBD, cmpd/DMSO (mean)", "setting": "[5]; 40 uM, LBD", "result": 0.7}]}
